Data taken from PubChem BioAssay (NCI).
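Where inhibition never reached the appropriate level, the endpoint shown equals the highest concentration tested. Otherwise, values were interpolated linearly from a five-concentration, 48-hour dose response in 96-well plates. TGI is the concentration that stops growth completely.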

Legend:
Test in all cases: NCI-60 cell line screen, 48 h
[1] = system: DU-145 prostate
[2] = system: HCT-15 colon
[3] = system: HOP-62 NSCLC
[4] = system: HOP-92 NSCLC
[5] = system: HS 578T breast
[6] = system: IGROV1 ovarian
[7] = system: KM12 colon
[8] = system: RPMI-8226 leukemia
[9] = system: SK-MEL-2 melanoma
[10] = system: SNB-75 CNS
[11] = system: SR leukemia
[12] = system: SW-620 colon
[13] = system: A498 renal
[14] = system: HL-60(TB) leukemia
[15] = system: MALME-3M melanoma
[16] = system: NCI-H460 lung
[17] = system: OVCAR-3 ovarian
[18] = system: HCC-2998 colon

Compound	TGI [1]	TGI [2]	TGI [3]	TGI [4]	TGI [5]	TGI [6]	TGI [7]	TGI [8]	TGI [9]	TGI [10]	TGI [11]	TGI [12]	TGI [13]	TGI [14]	TGI [15]	TGI [16]	TGI [17]	TGI [18]
CCCC(=O)Nc1cc(/C=C/C(=O)N2CC(CCl)c3c2cc(O)c2[nH]cc(C)c32)n(C)c1 (configuration not stated)	0.000817 µM	> 0.196 µM	< 2.5e-05 µM	< 2.5e-05 µM	0.0635 nM	> 0.25 µM	> 0.25 µM	0.00154 µM	< 2.5e-05 µM	< 2.5e-05 µM	> 0.14 µM	> 0.25 µM						
Oc1ccc(-c2nc3ccc(Cl)cc3s2)cc1	31.1 µM	31.1 µM				32.4 µM	34.2 µM	47.3 µM	34 µM		51.1 µM	39.3 µM	35.2 µM	57.7 µM	36 µM	36.1 µM	40.7 µM	
CC1(C)OCC=CCO1	> 100 µM		> 100 µM	> 100 µM	> 100000 nM	> 100 µM	> 100 µM	> 100 µM	> 100 µM	> 100 µM		> 100 µM		> 100 µM	> 100 µM	> 100 µM	> 100 µM	> 100 µM
COc1cc(C(O)(CC#N)c2cc3c(cc2Br)OCO3)cc(OC)c1OC (configuration not stated)	> 100 µM		35.9 µM	> 100 µM		> 100 µM	98.7 µM	> 100 µM	> 100 µM	> 100 µM		> 100 µM				50.8 µM	> 100 µM	66.1 µM
